Test results from paper PMC5421785, “Citrullination only infrequently impacts peptide binding to HLA class II MHC” (PLoS ONE, 2017).
Where two headings read alike, the source gives them in different places. Blank lines part the entries; values can stand above or below the compound they belong to. Square brackets hold non-standard residues; d marks the D form. Ends that are not written are not given here. Peptide text beside a SMILES is read from it. Cit = NC(=O)NCCC[C@H](N)C(=O)O

Legend:
HLA-DRB1*04:01 = biological target: T1, HLA-DRB1*04:01 (Homo sapiens, UniProt P01903+P01911, A100K/A169T/F76Y/I96L/K127E/L162R/M171V/N62H/P40V/Q125Y/R42H/S133A/S149N/S66Y/V115G/V209L/W38E); experiment: HLA class II peptide binding, inhibition of radiolabeled peptide binding to purified MHC
T1 construct: EBV transformed homozygous cell lines were used as sources of MHC molecules; endogenous in cells; host or cells: EBV transformed homozygous cell lines

HLA-DRB1*01:01 = biological target: T2, HLA-DRB1*01:01 (Homo sapiens, UniProt P01903+P01911, A100R/D57E/F55L/F60I/F76Y/I96L/L162R/M171V/P40L/Q125E/R42F/V115G/Y59C); experiment: as above
T2 construct: EBV transformed homozygous cell lines were used as sources of MHC molecules; endogenous in cells; host or cells: EBV transformed homozygous cell lines

[1] = read-out: DRB1*04:01 binding capacity, WT peptide (IC50 nM)
[2] = read-out: DRB1*01:01 binding capacity, WT peptide (IC50 nM)
[3] = wild-type (unmodified Arg) 15-mer peptide, purified HLA-DRB1*04:01, read-out: DRB1*04:01 binding capacity, WT peptide (IC50 nM)
[4] = wild-type (unmodified Arg) 15-mer peptide, purified HLA-DRB1*01:01, read-out: DRB1*01:01 binding capacity, WT peptide (IC50 nM)
[5] = citrullinated 15-mer peptide (X = citrulline), purified HLA-DRB1*04:01, read-out: DRB1*04:01 binding capacity, Cit peptide (IC50 nM)
[6] = citrullinated 15-mer peptide (X = citrulline), purified HLA-DRB1*01:01, read-out: DRB1*01:01 binding capacity, Cit peptide (IC50 nM)

IC50 (HLA-DRB1*04:01; [1]): 824 nM
IC50 (HLA-DRB1*01:01; [2]): 72 nM
Compound: NYIDKVRFLEQQNKI [Vimentin 116 WT]

IC50 (HLA-DRB1*04:01; [3]): > 40000 nM
IC50 (HLA-DRB1*01:01; [4]): 6720 nM
Compound: LGPREKGPDPLQYMR [Collagen 1226 WT]

IC50 (HLA-DRB1*04:01; [5]): 3810 nM
IC50 (HLA-DRB1*01:01; [6]): 360 nM
Compound: CC[C@H](C)[C@H](NC(=O)[C@@H](N)CCC(=O)O)C(=O)N[C@@H](C)C(=O)N[C@H](C(=O)N[C@@H](Cc1ccc(O)cc1)C(=O)N[C@@H](CCCNC(N)=O)C(=O)N[C@@H](CCCCN)C(=O)N[C@@H](CC(C)C)C(=O)N[C@@H](CC(C)C)C(=O)N[C@@H](CCC(=O)O)C(=O)NCC(=O)N[C@@H](CCC(=O)O)C(=O)N[C@@H](CCC(=O)O)C(=O)N[C@@H](CO)C(=O)N[C@@H](CCCNC(=N)N)C(=O)O)[C@@H](C)O [EIATYXKLLEGEESR] (H-EIATY[Cit]KLLEGEESR-OH)

IC50 (HLA-DRB1*04:01; [3]): 5590 nM
IC50 (HLA-DRB1*01:01; [4]): 86 nM
Compound: MALDIEIATYRKLLE [Vimentin 391 WT]

IC50 (HLA-DRB1*04:01; citrullinated 15-mer (X), purified MHC, inhibition of radiolabeled peptide binding, dash = IC50 >40,000 nM, read-out: DRB1*04:01 binding capacity, Cit peptide (IC50 nM)): > 40000 nM
IC50 (HLA-DRB1*01:01; citrullinated 15-mer (X), purified MHC, inhibition of radiolabeled peptide binding, dash = IC50 >40,000 nM, read-out: DRB1*01:01 binding capacity, Cit peptide (IC50 nM)): 983 nM
Compound: CC[C@H](C)[C@H](NC(=O)[C@@H](N)CC(=O)O)C(=O)N[C@@H](CCSC)C(=O)N[C@@H](CCCNC(N)=O)C(=O)N[C@@H](CC(C)C)C(=O)N[C@@H](CCCNC(=N)N)C(=O)N[C@@H](CCC(=O)O)C(=O)N[C@@H](CCCCN)C(=O)N[C@@H](CC(C)C)C(=O)N[C@@H](CCC(N)=O)C(=O)N[C@@H](CCC(=O)O)C(=O)N[C@@H](CCC(=O)O)C(=O)N[C@@H](CCSC)C(=O)N[C@@H](CC(C)C)C(=O)N[C@@H](CCC(N)=O)C(=O)O [DIMXLREKLQEEMLQ] (H-DIM[Cit]LREKLQEEMLQ-OH)

IC50 (HLA-DRB1*04:01; citrullinated peptide as listed (X at Cit position), read-out: DRB1*04:01 binding capacity Cit peptide (IC50 nM)): 18 nM
IC50 (HLA-DRB1*01:01; citrullinated peptide as listed (X at Cit position), read-out: DRB1*01:01 binding capacity Cit peptide (IC50 nM)): 6.5 nM
Compound: CC[C@H](C)[C@H](NC(=O)[C@H](CCC(N)=O)NC(=O)[C@H](CC(N)=O)NC(=O)[C@H](CC(N)=O)NC(=O)[C@H](CC(C)C)NC(=O)[C@@H](N)CO)C(=O)N[C@@H](CCC(=O)O)C(=O)N[C@@H](CO)C(=O)N[C@H](C(=O)N[C@@H](CCCNC(N)=O)C(=O)N[C@@H](CO)C(=O)N1CCC[C@H]1C(=O)N[C@@H](CCC(=O)O)C(=O)NCC(=O)N[C@@H](CO)C(=O)O)[C@@H](C)CC [SLNNQIESIXSPEGS] (H-SLNNQIESI[Cit]SPEGS-OH)

IC50 (HLA-DRB1*04:01; [3]): > 40000 nM
IC50 (HLA-DRB1*01:01; [4]): 1610 nM
Compound: ERGRTGPAGAAGARG [Collagen 331 WT]

IC50 (HLA-DRB1*04:01; [5]): > 40000 nM
IC50 (HLA-DRB1*01:01; [6]): 3910 nM
Compound: C[C@H](NC(=O)CNC(=O)[C@H](C)NC(=O)[C@@H]1CCCN1C(=O)CNC(=O)[C@@H](NC(=O)[C@H](CCCNC(N)=O)NC(=O)CNC(=O)[C@H](CCCNC(=N)N)NC(=O)[C@@H](N)CCC(=O)O)[C@@H](C)O)C(=O)N[C@@H](C)C(=O)NCC(=O)N[C@@H](C)C(=O)N[C@@H](CCCNC(=N)N)C(=O)NCC(=O)O [ERGXTGPAGAAGARG] (H-ERG[Cit]TGPAGAAGARG-OH)

IC50 (HLA-DRB1*04:01; [1]): 6110 nM
IC50 (HLA-DRB1*01:01; [2]): 75 nM
Compound: CC(C)C[C@H](NC(=O)[C@@H](N)CO)C(=O)N[C@@H](Cc1ccc(O)cc1)C(=O)N[C@@H](C)C(=O)N[C@@H](CO)C(=O)N[C@@H](CO)C(=O)N1CCC[C@H]1C(=O)NCC(=O)NCC(=O)N[C@H](C(=O)N[C@@H](Cc1ccc(O)cc1)C(=O)N[C@@H](C)C(=O)N[C@H](C(=O)N[C@@H](CCCNC(=N)N)C(=O)N[C@@H](CO)C(=O)O)[C@@H](C)O)C(C)C [Vimentin 51 WT]

IC50 (HLA-DRB1*04:01; [3]): 6480 nM
IC50 (HLA-DRB1*01:01; [4]): 538 nM
Compound: PNFSSLNLRETNLDS [Vimentin 416 WT]

IC50 (HLA-DRB1*04:01; [1]): 6010 nM
IC50 (HLA-DRB1*01:01; [2]): 6560 nM
Compound: REEAENTLQSFRQDV [Vimentin 196 WT]

IC50 (HLA-DRB1*04:01; [3]): 3520 nM
IC50 (HLA-DRB1*01:01; [4]): 52 nM
Compound: EIATYRKLLEGEESR [Vimentin 396 WT]
